Assay results from US9192601B2, “Methods for enhancing muscle performance and tone” (Salk Institute for Biological Studies, priority 2006, dated 2015).

Assays:
quadriceps muscle = experiment: Microarray analysis of quadriceps (Affymetrix mouse genome 430A 2.0); format: in vivo
C57B/6J mice = experiment: Treadmill running endurance test; format: in vivo, mouse; conditions: 500 mg/kg/day, 4 weeks, no exercise
Description: Mice were acclimated to moderate treadmill running (10 m/min for 15 min) every other day for 1 week. After acclimation, basal running endurance was determined by placing each mouse on a treadmill, gradually increasing the speed from 0 to 15 m/min, and maintaining 15 m/min until the mouse was exhausted. The time and distance run until exhaustion were recorded as the basal endurance values (Week 0).
Treatments were administered orally.
Expression of biomarkers characteristic of an oxidative phenotype in skeletal muscle, typically, has been correlated with increased oxidative performance (e.g., increased running endurance) of such skeletal muscle. […] Accordingly, to determine the functional effects of ligand, age and weight matched cohorts of treated and control mice were subjected to an endurance treadmill performance test before (week 0) and after (week 5) treatment.
In addition to affecting the contractile apparatus of skeletal muscle, exercise training also increases skeletal muscle mitochondrial density (e.g., Freyssenet et al., Arch. Physiol. Biochem., 104(2): 129-141, 1996). […] Mice in all groups were acclimated to moderate treadmill running and basal running endurance was determined as described in Example 1. Thereafter, mice in the exercise-trained groups received four weeks (5 days/week) of exercise training on a treadmill inclined at 5 degrees. […] At the end of four weeks, all exercise-trained mice were running for 50 min/day at 18 m/min. […] Unless otherwise noted, V, GW, Tr and GW+Tr subjects described in this and the examples below were similarly treated. At the end of the drug treatment and/or training protocol (Week 5) 6 mice per group were subjected to the running test. […] RNA was prepared real time quantitative PCR performed as described in Example 1.
At the end of the drug treatment and/or training protocol (Week 5) 6 mice per group were subjected to the running test.
At the end of the drug treatment and/or training protocol (Week 5), running endurance of six mice per group was determined in the same manner as was basal running endurance. […] on three mice in each group to confirm that changes observed in the skeletal muscle were not due to the acute run, but were related to the exercise training.

Oxygen consumption = format: in vivo, mouse; conditions: AICAR 500 mg/kg/day, 4 weeks
AMPK = experiment: Western blot of phospho-AMPK in quadriceps; format: in vivo, mouse; conditions: AICAR 500 mg/kg/day, 4 weeks, quadriceps
Description: Exercise training is known to activate kinases, such as p44/42 MAPK and AMPK, which regulate gene expression in skeletal muscle (Chen et al., Diabetes, 52:2205-12, 2003; Goodyear et al., Am. J. Physiol, 271:[…]-8, 1996). AMPK affects skeletal muscle gene expression and oxidative metabolism (Chen et al., Diabetes. 52: 2205-12, 2003, Reznick et al., J. Physiol. 574: 33-9, 2006). The interaction between exercise-regulated kinases and PPARδ signaling is described in this Example. The levels of phospho-p44/42 MAPK and phospho-AMPK a subunit and total AMPK were determined in protein homogenates of quadriceps muscle by Western blot. Antibodies specific for phospho-p44/42 MAPK, phospho- and total-AMPK αl antibodies were obtained from Cell Signaling. The phospho-specific AMPK αl antibody recognizes the key activating threonine in the activation loop.

[1] = system: myoglobin, UCP3, cytochrome c (CYCS) and SCDl; experiment: Western blotting of oxidative biomarkers in quadriceps; format: in vivo, mouse; conditions: AICAR 500 mg/kg/day, 4 weeks, quadriceps
Description: In addition to gene expression, protein expression was determined for selective oxidative biomarkers including myoglobin, UCP3, cytochrome c (CYCS) and SCDl, using Western blotting. Protein homogenates were prepared from quadriceps muscle, separated by SDS polyacrylamide gel electrophoresis, transferred to blotting membrane and probed with antibodies specific for myoglobin (Dako), UCP3 (Affinity Bioreagents), cytochrome c (Santacruz) SCDl (Santacruz), and, as a loading control, tubulin (Sigma).

[2] = AICAR alone, untrained mice, quadriceps

Compound `NC(=O)c1ncn([C@@H]2O[C@H](CO)[C@@H](O)[C@H]2O)c1N` [AICAR, 5-amino-4-imidazolecarboxamide riboside] has an Aacs expression (quadriceps muscle; [2]) of 1.875, an Acly expression (quadriceps muscle; [2]) of 1.687 and an Adipoq expression (quadriceps muscle; [2]) of 2.043. It also gave an Ak2 expression (quadriceps muscle; [2]) of 1.486, an Apoe expression (quadriceps muscle; [2]) of 1.403 and a Cd36 expression (quadriceps muscle; [2]) of 1.386. For the same compound, the Ces3 expression (quadriceps muscle; [2]) was 1.516, the Cidea expression (quadriceps muscle; [2]) was 5.021 and the Dgat2 expression (quadriceps muscle; [2]) was 2.034. It also gave an Elovl6 expression (quadriceps muscle; [2]) of 2.134, a Fabp4 expression (quadriceps muscle; [2]) of 1.709 and a Fasn expression (quadriceps muscle; [2]) of 2.098. For the same compound, the Lep expression (quadriceps muscle; [2]) was 2.047, the Lipe expression (quadriceps muscle; [2]) was 1.64 and the Lpl expression (quadriceps muscle; [2]) was 1.386. The Mgll expression (quadriceps muscle; [2]) was 1.503, the Mgst1 expression (quadriceps muscle; [2]) was 1.602 and the Nrip1 expression (quadriceps muscle; [2]) was 1.474. The Pck1 expression (quadriceps muscle; [2]) was 2.68, the Pcx expression (quadriceps muscle; [2]) was 1.393 and the Pdk4 expression (quadriceps muscle; [2]) was 1.321. The Pparg expression (quadriceps muscle; [2]) was 3.027, the Retn expression (quadriceps muscle; [2]) was 1.891 and the Scd1 expression (quadriceps muscle; [2]) was 1.931. For the same compound, the Sdhd expression (quadriceps muscle; [2]) was 1.529, the Sfxn1 expression (quadriceps muscle; [2]) was 1.713 and the Slc25a5 expression (quadriceps muscle; [2]) was 1.372. It also gave a Sult1a1 expression (quadriceps muscle; [2]) of 2.021, a Tspo expression (quadriceps muscle; [2]) of 1.441 and a Ucp1 expression (quadriceps muscle; [2]) of 3.623. The Ucp3 expression (quadriceps muscle; [2]) was 1.258, the “number of upregulated genes linked to oxidative metabolism” value (quadriceps muscle; AICAR treatment alone) was 32 genes and the “ran further than vehicle-treated mice (distance)” value (C57B/6J mice) was about 44%. For the same compound, the “ran longer than vehicle-treated mice (time)” value (C57B/6J mice) was about 23%, the oxygen consumption (Oxygen consumption) was “increased” and the “phosphorylation of AMPK a subunit and acetyl CoA carboxylase (ACC)” value (AMPK) was “increased phosphorylation”. For the same compound, the “expression of UCP3 (immunoblot)” value [1] was “increased expression”.
